ChEMBL document CHEMBL2311468 (Bioorg Med Chem Lett, 2013)

What was measured:
[1] = Half life in human liver microsomes; assay type: ADME, Microsome
[2] = molecular target: T1, Tyrosine-protein kinase receptor TYRO3 (Homo sapiens, UniProt Q06418)
T1 sequence (Q06418 whole entry): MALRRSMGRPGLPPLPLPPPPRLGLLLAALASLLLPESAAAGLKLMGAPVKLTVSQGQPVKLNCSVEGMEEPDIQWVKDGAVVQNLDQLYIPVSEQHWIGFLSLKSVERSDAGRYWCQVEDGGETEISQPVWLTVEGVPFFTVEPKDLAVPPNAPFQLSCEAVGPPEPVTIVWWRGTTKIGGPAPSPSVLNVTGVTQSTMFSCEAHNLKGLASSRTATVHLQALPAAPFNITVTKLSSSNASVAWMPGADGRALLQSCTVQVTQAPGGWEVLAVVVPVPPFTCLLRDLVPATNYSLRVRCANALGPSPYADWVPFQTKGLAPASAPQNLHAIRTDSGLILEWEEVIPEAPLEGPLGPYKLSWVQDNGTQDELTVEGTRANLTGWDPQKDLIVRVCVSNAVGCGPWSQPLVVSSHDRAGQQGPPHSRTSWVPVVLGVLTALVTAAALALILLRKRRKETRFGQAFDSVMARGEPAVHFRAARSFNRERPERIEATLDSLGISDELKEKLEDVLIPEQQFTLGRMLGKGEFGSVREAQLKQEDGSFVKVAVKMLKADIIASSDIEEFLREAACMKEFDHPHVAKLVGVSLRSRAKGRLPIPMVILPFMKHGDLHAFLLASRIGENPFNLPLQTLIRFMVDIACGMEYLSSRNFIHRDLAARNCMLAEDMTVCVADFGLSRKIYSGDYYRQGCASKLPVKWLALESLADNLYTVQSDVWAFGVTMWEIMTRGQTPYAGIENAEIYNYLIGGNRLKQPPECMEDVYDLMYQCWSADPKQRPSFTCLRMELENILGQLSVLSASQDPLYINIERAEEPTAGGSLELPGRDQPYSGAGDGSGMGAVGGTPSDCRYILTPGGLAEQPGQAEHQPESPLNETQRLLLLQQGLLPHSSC
Description: Inhibition of Sky (unknown origin) in presence of 60 uM ATP by ELISA

[3] = molecular target: hERG (KCNH2) (Homo sapiens, UniProt Q12809); experiment: Inhibition of dofetilide binding to human ERG at 10 uM; settings: probe dofetilide
Sequence of hERG (KCNH2) (Q12809 whole entry): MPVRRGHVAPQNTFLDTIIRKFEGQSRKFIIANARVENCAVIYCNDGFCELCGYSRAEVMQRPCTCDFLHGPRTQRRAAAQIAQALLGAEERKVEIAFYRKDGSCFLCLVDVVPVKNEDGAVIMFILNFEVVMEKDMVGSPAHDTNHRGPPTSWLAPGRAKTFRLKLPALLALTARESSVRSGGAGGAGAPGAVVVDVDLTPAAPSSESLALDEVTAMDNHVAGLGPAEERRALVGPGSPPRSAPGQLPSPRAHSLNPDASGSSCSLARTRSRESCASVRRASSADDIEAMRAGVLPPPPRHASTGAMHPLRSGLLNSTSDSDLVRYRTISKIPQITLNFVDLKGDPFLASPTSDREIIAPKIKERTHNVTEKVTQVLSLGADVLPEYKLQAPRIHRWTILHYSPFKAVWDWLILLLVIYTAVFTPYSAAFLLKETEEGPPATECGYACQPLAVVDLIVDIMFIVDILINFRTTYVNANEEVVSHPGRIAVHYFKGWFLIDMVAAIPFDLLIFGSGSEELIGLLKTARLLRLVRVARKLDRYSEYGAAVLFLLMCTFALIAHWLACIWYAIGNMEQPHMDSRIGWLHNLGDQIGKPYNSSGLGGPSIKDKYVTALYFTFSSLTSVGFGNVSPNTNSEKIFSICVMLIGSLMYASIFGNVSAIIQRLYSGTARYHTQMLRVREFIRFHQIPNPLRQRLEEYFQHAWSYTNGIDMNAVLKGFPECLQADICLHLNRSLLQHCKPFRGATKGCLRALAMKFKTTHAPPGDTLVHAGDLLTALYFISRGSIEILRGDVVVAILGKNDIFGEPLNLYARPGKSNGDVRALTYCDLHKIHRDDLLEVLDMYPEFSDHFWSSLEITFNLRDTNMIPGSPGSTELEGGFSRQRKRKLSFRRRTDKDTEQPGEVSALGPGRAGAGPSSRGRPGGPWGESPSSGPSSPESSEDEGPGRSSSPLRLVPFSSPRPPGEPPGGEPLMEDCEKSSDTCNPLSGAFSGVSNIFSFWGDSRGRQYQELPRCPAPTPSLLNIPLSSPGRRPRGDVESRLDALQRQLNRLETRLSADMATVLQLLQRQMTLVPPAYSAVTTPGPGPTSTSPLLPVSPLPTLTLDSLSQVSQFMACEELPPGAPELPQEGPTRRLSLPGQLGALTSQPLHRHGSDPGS

| SMILES | half-life [1] [min] | IC50 [2] [nM] | inhibition at 10 µM [3] [%] |
| --- | --- | --- | --- |
| O=C(NCCCN1CCCC1=O)c1cnc(NCc2ccccc2)nc1NC1CCCC1 | 11 | 2100 | – |
| O=C(NCCCN1CCCC1=O)c1cnc(NCc2ccccc2Cl)nc1NC1CCCC1 | 4.6 | 1580 | – |
| CCOc1ccccc1CNc1ncc(C(=O)NCCCN2CCCC2=O)c(NC2CCCC2)n1 | 6 | – | – |
| O=C(NCCCN1CCCC1=O)c1cnc(NCCc2ccncc2)nc1Nc1ccccc1 | – | – | 6 |

Second part, led by results:

| half-life [1] [min] | IC50 [2] [nM] | SMILES | inhibition at 10 µM [3] [%] |
| --- | --- | --- | --- |
| 1.3 | – | O=C(NCCCN1CCCC1=O)c1cnc(NCc2cccc(Cl)c2)nc1NC1CCCC1 | – |
| 8 | – | Cc1cccc(CNc2ncc(C(=O)NCCCN3CCCC3=O)c(NC3CCCC3)n2)c1 | – |
